Measured values reported in US10683352B1, “Methods for treating cancer using GRM8 inhibitors” (Flagship Pioneering Innovations V, Inc., priority 2018, dated 2020).

Tested on: M2-like macrophages
Experiment: IL-8 secretion by monocyte-derived macrophages treated with mGluR8 agonist (LEGENDplex bead-based immunoassay)
Assay type: cell-based, human
Conditions: supernatant; for Fold change of IL-8 (Normalized to M2-like Macs + LPS with no compound treatment): human monocyte-derived macrophages, LEGENDplex
Procedure: CD14+ monocytes were isolated from human PBMCs using negative magnetic bead selection (Stemcell Technologies) on day 0. Cells were cultured with M-CSF to differentiate monocytes to macrophages. On day 6, cells were treated with L-AP4 (selective group III metabotropic glutamate receptor agonist) (Sigma-Aldrich), at concentrations 1 μM and 10 μM overnight. Supernatant was collected and LEGENDplex™ bead-based immunoassays (Biolegend) were performed to detect for changes in cytokines secreted.
Secretion of the inflammatory cytokine, IL-8, was decreased with the addition of the mGluR8 agonist in M2-like macrophages, consistent across multiple donors, as shown in Table 17 below.

SMILES: NC(CCP(=O)(O)O)C(=O)O [L-AP4]
- Fold change of IL-8 (Normalized to M2-like Macs + LPS with no compound treatment) (M2-like Macs + L-AP4 1 μM overnight): 0.646
- Fold change of IL-8 (Normalized to M2-like Macs + LPS with no compound treatment) (M2-like Macs + L-AP4 10 μM overnight): 0.866
- Secretion of the inflammatory cytokine IL-8 (macrophages differentiated with M-CSF from CD14+ monocytes of human PBMCs, L-AP4 at 1 μM and 10 μM overnight, multiple donors): decreased
